pIC50: −log10 of the molar value. Where a SMILES comes first, the peptide text is derived from it. Where no end group is shown, it is not given here. [ ]: non-standard residue; d: D form. The star is where a group is joined. X14 = O=C([C@H](Cc1ccccc1)N(CC1CCCCC1)CC1CCCCC1)*; X9 = CN(Cc1ccccc1)[C@@H](Cc1ccccc1)C(=O)*; Butanoyl(2-OPh) = CCC(Oc1ccccc1)C(=O)*; X5 = CCCCCN(C)[C@@H](Cc1ccccc1)C(=O)*; X7 = CCCCCCC(Oc1ccc2ccccc2c1)C(=O)*; X4 = CCCCCN1Cc2ccccc2C[C@H]1C(=O)*; NMeR = CN[C@@H](CCCNC(=N)N)C(=O)O; Cha = N[C@@H](CC1CCCCC1)C(=O)O; dCha = N[C@H](CC1CCCCC1)C(=O)O; X21 = CCCCC(Oc1ccccc1)C(=O)*; X8 = O=C(C1CCc2ccccc2C1)*
Biological target: T1, thrombin receptor (Homo sapiens, UniProt P25116)
T1 construct: washed human platelets are prepared from blood drawn from healthy volunteers; endogenous in cells; host or cells: washed human platelets from healthy volunteers
T1 sequence (P25116 22-425): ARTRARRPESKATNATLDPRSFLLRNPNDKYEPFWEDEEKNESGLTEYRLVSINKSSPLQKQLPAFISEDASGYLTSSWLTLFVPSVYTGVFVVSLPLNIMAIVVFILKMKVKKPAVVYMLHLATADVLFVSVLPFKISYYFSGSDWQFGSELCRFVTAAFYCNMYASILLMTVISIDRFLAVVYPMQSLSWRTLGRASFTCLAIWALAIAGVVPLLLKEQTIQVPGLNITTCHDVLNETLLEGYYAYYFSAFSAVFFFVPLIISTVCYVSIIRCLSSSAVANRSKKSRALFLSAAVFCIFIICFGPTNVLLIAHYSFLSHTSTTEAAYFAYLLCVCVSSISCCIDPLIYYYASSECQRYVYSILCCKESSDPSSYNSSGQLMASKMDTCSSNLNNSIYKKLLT
Assay: Platelet aggregation assay for thrombin receptor antagonist activity (washed human platelets stimulated with α-thrombin)
Assay type: cell-based
Details: not given
Description: The compounds of the present invention may be tested for thrombin receptor antagonist activity by using a platelet aggregation assay. In this assay, washed human platelets are prepared from blood drawn from healthy volunteers who have not ingested any medications for two weeks prior to donation. Blood is drawn into 12.5% (vol/vol) ACD (85 mM sodium citrate, 111 mM dextrose, 71 mM citric acid) containing 0.1% (vol/vol) PGI2 (0.05 mg/mL PGI2, 100 mM Tris, pH 12). Platelet-rich plasma was obtained by centrifugation at 160×g for 20 minutes. The platelets were pelleted by centrifugation at 760×g for 10 minutes and resuspended in CGS (13 mM trisodium citrate, 120 mM sodium chloride, 30 mM dextrose, pH 7.0) containing 0.1% (vol/vol) PGI2, repelleted and resuspended in Tyrodes buffer (10 mM Hepes, 12 mM sodium bicarbonate, 138 mM sodium chloride, 5.5 mM glucose, 2.9 mM potassium chloride, 1.0 mM calcium chloride, pH 7.4) and stored at 37° C. Approximately 0.4-10 nM α-thrombin is used to stimulate platelet aggregation in control reactions which are monitored by aggregometry using an aggregometer. Candidate antagonists are added to the platelet mixture followed by the addition of thrombin in order to assess their ability to prevent thrombin-mediated aggregation.
Platelet aggregation can also be measured with washed platelets in 96-well microtiter plates as described in Fratantoni, J. C. et al., Am. J. Clin. Pathol. 94:613-617 (1990). The ability of the antagonists to block the thrombin receptor was assessed in this assay using various concentrations of antagonists. The concentration at which 50% inhibition of platelet aggregation is achieved is defined as IC50.

Molecule	pIC50
CCCCCN(C)[C@@H](Cc1ccccc1)C(=O)N[C@@H](CC1CCCCC1)C(=O)N[C@H](CC1CCCCC1)C(=O)N[C@@H](CCCNC(=N)N)C(=O)N[C@@H](CCCCN)C(N)=O [Compound 43] (X5-[Cha][dCha]RK-NH2)	4.82
CCCCCN(C)[C@@H](Cc1ccccc1)C(=O)N[C@@H](CC1CCCCC1)C(=O)N[C@@H](CC1CCCCC1)C(=O)N[C@@H](CCCNC(=N)N)C(=O)N[C@@H](CCCCN)C(N)=O [Compound 15] (X5-[Cha][Cha]RK-NH2)	5.00

Same assay, conditions: washed human platelets, thrombin-mediated aggregation; read-out: IC50 (concentration at which 50% inhibition of platelet aggregation is achieved)

Molecule	pIC50
C/C(=C\c1ccccc1)CN[C@@H](CC1CCCCC1)C(=O)N[C@@H](CC1CCCCC1)C(=O)N[C@@H](CCCNC(=N)N)C(=O)N[C@@H](CCCCN)C(N)=O [Compound 34]	4.82
CN(Cc1ccccc1)[C@@H](Cc1ccccc1)C(=O)N[C@@H](CC1CCCCC1)C(=O)N[C@@H](CC1CCCCC1)C(=O)N[C@@H](CCCNC(=N)N)C(=O)N[C@@H](CCCCN)C(N)=O [Compound 19] (X9-[Cha][Cha]RK-NH2)	4.52
CCCCC(Oc1ccccc1)C(=O)N[C@@H](CC1CCCCC1)C(=O)N[C@@H](CC1CCCCC1)C(=O)N[C@@H](CCCNC(=N)N)C(=O)N[C@@H](CCCCN)C(N)=O (stereo partly drawn) [Compound 24] (X21-[Cha][Cha]RK-NH2)	4.82
CCC(Oc1ccccc1)C(=O)N[C@@H](CC1CCCCC1)C(=O)N[C@@H](CC1CCCCC1)C(=O)N[C@@H](CCCCN)C(=O)N[C@@H](CCCCN)C(N)=O (stereo partly drawn) [Compound 49] ({Butanoyl(2-OPh)}-[Cha][Cha]KK-NH2)	4.12
CCC(Oc1ccccc1)C(=O)N[C@@H](CC1CCCCC1)C(=O)N[C@@H](CC1CCCCC1)C(=O)NCCCN1CCN(CCCN)CC1 (stereo partly drawn) [Compound 59]	4.05
CCCCCCC(Oc1ccc2ccccc2c1)C(=O)N[C@@H](CC1CCCCC1)C(=O)N[C@@H](CC1CCCCC1)C(=O)N[C@@H](CCCNC(=N)N)C(=O)N[C@@H](CCCCN)C(N)=O (stereo partly drawn) [Compound 23] (X7-[Cha][Cha]RK-NH2)	5.30
CCC(Oc1ccccc1)C(=O)N[C@@H](CC1CCCCC1)C(=O)N[C@@H](CC1CCCCC1)C(=O)N[C@@H](CCCNC(=N)N)C(=O)N[C@H](CCCCN)C(N)=O (stereo partly drawn) [Compound 52] ({Butanoyl(2-OPh)}-[Cha][Cha]R[dK]-NH2)	4.82
CCC(Oc1ccccc1)C(=O)N[C@@H](CC1CCCCC1)C(=O)N[C@@H](CC1CCCCC1)C(=O)NCCCN(C)C (stereo partly drawn) [Compound 60]	4.60
N=C(N)NCCC[C@H](NC(=O)[C@H](CC1CCCCC1)NC(=O)[C@H](CC1CCCCC1)NC(=O)[C@H](Cc1ccccc1)N(CC1CCCCC1)CC1CCCCC1)C(=O)N[C@@H](CCCCN)C(=O)N1CCC[C@H]1C(=O)N[C@@H](CC(N)=O)C(=O)N[C@@H](CC(=O)O)C(=O)N[C@@H](CCCCN)C(N)=O [Compound 8] (X14-[Cha][Cha]RKPNDK-NH2)	5.30
N=C(N)NCCC[C@H](NC(=O)[C@H](CC1CCCCC1)NC(=O)[C@H](CC1CCCCC1)NC/C=C/c1ccccc1)C(=O)N[C@@H](CCCCN)C(N)=O [Compound 33]	5.30
N=C(N)NCCC[C@H](NC(=O)[C@H](CC1CCCCC1)NC(=O)[C@H](CC1CCCCC1)NC(=O)C1CCc2ccccc2C1)C(=O)N[C@@H](CCCCN)C(N)=O (stereo partly drawn) [Compound 31] (X8-[Cha][Cha]RK-NH2)	< 3.70
CCCCCN1Cc2ccccc2C[C@H]1C(=O)N[C@@H](CC1CCCCC1)C(=O)N[C@@H](CC1CCCCC1)C(=O)N(C)[C@@H](CCCNC(=N)N)C(=O)N[C@@H](CCCNC(=N)N)C(N)=O [Compound 39] (X4-[Cha][Cha][NMeR]R-NH2)	5.10

Biological target: T2, platelet thrombin receptors (Homo sapiens, UniProt P25116)
T2 construct: host or cells: platelets
T2 sequence (P25116 22-425): T1 sequence (P25116 22-425)
Assay: not given
Details: platelet thrombin receptors activated with either thrombin or agonist peptides; cited from earlier work

Molecule	thrombin receptor antagonist activity
Phe-Leu-Leu-Arg-Asn-OH (FLLRN-OH) [pentapeptide based on a portion of the agonist peptide minimum structure]	weak antagonist
